Measured values: ChEMBL document CHEMBL3301361, “Experimental in vitro DMPK and physicochemical data on a set of publicly disclosed compounds”
Converted amounts (≈) assume the structure as drawn. Residues, ends and D or L forms follow the SMILES beside them.

Experiments:
in vitro [1] = conditions: SD, HW or BN, rat, plasma
in vitro [2] = conditions: Beagle, dog, plasma
in vitro [3] = conditions: human, hepatocytes
physchem [4] = conditions: octan-1-ol/water
in vitro [5] = conditions: human, plasma
in vitro [6] = conditions: human
in vitro [7] = conditions: hepatocytes
physchem [8] = conditions: pH 7.4 buffer

Row | Structure (SMILES) | fraction unbound at 5 h (in vitro [1]) | fraction unbound at 5 h (in vitro [2]) | hepatocyte CLint (in vitro [3]) [µL/min/1e6 cells] | logD (physchem [4]; pH 7.4, LogD7.4) | fraction unbound at 5 h (in vitro [5]; PPB) | microsomal CLint (in vitro [6]; microsomes) [µL/min/mg] | microsomal CLint (in vitro [6]; liver microsomes) [µL/min/mg] | hepatocyte CLint (in vitro [7]) [µL/min/1e6 cells] | solubility thermodynamic (physchem [8]) [µM] | logD (physchem [4]; pH 7.4) | fraction unbound at 5 h (in vitro [5])
1 | CC(C)(N)C(=O)N[C@H](COCc1ccc(F)cc1F)C(=O)N1CCC2=NN(CC(F)(F)F)C(=O)[C@]2(Cc2ccccn2)C1 | 0.511 | 0.454 | 15.5 | – | – | – | – | – | – | – | –
2 | O=C(O)COc1ccc(Cl)cc1CN1CCN(S(=O)(=O)Cc2ccccc2)CC1 | 0.114 | 0.0343 | < 3 | 0.33 | 0.0067 | – | – | – | – | – | –
3 | N#Cc1cccc(-c2cc(Cl)ccc2OCC(=O)O)c1 | 0.0343 | 0.0234 | – | – | 0.0075 | < 3 | – | – | – | – | –
4 | Cc1ccc(S(=O)(=O)Nc2c(C(=O)N[C@@H](C)C(C)(C)C)c(C)nn2C2CCOCC2)cc1 | 0.166 | 0.529 | – | – | 0.208 | – | 7 | < 3 | – | – | –
5 | COc1cc2c(cc1-c1c(C)noc1C)ncc1[nH]c(=O)n([C@H](C)c3ccccn3)c12 | 0.0374 | 0.105 | – | 3.15 | 0.0234 | 7.59 | – | – | – | – | –
6 | Cc1c(OC2CCN(CC3CCN([C@@](C)(Cc4ccc(F)cc4)C(=O)O)CC3)CC2)ccc(Cl)c1Cl | 0.0752 | 0.0568 | – | – | – | – | < 3 | < 3 | – | – | –
7 | O=C(O)[C@H](Cc1ccc(F)cc1)N1CCC(CN2CCC(Oc3ccc(Cl)c(Cl)c3)CC2)CC1 | 0.22 | 0.224 | – | 2.98 | 0.114 | – | – | – | 72.4 (≈ 36.9 µg/mL) | – | –
8 | CO[C@H]1CN(CCn2c(=O)ccc3ccc(C#N)cc32)CC[C@H]1NCc1cc2c(cn1)OCCO2 | 0.738 | 0.569 | – | 0.63 | 0.483 | – | – | – | – | – | –
9 | Cc1cn([C@H]2CCCN([C@H](C)c3ccc(C(=O)O)c(Oc4cccc(Cl)c4)c3)C2)c(=O)[nH]c1=O | 0.0293 | 0.101 | – | -0.3 | 0.0156 | – | – | 3.39 | – | – | –
10 | Cc1cn([C@H]2CCCN([C@@H](C)c3ccc(C(=O)O)c(Oc4cccc(Cl)c4)c3)C2)c(=O)[nH]c1=O | 0.0268 | 0.0532 | – | -0.26 | 0.0229 | – | – | – | – | – | –
11 | Cc1cn([C@H]2CCCN([C@H](CC(C)C)c3ccc(C(=O)O)c(Oc4cccc(Cl)c4)c3)C2)c(=O)[nH]c1=O | 0.0175 | 0.0366 | – | 0.91 | 0.0274 | – | – | 9.12 | – | – | –
12 | Cc1cn([C@H]2CCCN([C@H](CC(C)(C)C)c3ccc(C(=O)O)c(Oc4cccc(Br)c4)c3)C2)c(=O)[nH]c1=O | 0.0149 | 0.0268 | – | 1.09 | 0.0287 | – | – | 49 | – | – | –
13 | CC(C)(C)NC(=O)NCCN1CC(NC(=O)c2cc(Cl)cc(Cl)c2)C1 | 0.101 | 0.0784 | 3.31 | – | 0.0928 | – | – | – | – | – | –
14 | CC(C)(C)NC(=O)NCCN1CCN(CC(=O)NC23CC4CC(CC(C4)C2)C3)CC1 | – | 0.24 | 33.9 | – | – | – | – | – | – | – | –
15 | CC[C@H](CO)Nc1nc(SCc2ccccc2)nc2[nH]c(=O)sc12 | – | 0.0053 | 10 | – | 0.0016 | – | – | – | – | – | –
16 | C[C@H](CO)Nc1nc(SCc2ccco2)nc2[nH]c(=O)sc12 | – | 0.0274 | – | 2.21 | 0.016 | 8.28 | – | 61 | – | – | –
17 | CCN(CC)CCN1C(=O)C(O)(c2ccccc2Cl)c2c1cc(C(N)=O)cc2C(F)(F)F (stereo unspecified) | – | 0.212 | 15.1 | – | – | – | – | – | – | – | –

Row | Structure (SMILES) | fraction unbound at 5 h (in vitro [1]) | fraction unbound at 5 h (in vitro [2]) | hepatocyte CLint (in vitro [3]) [µL/min/1e6 cells] | logD (physchem [4]; pH 7.4, LogD7.4) | fraction unbound at 5 h (in vitro [5]; PPB) | microsomal CLint (in vitro [6]; microsomes) [µL/min/mg] | microsomal CLint (in vitro [6]; liver microsomes) [µL/min/mg] | hepatocyte CLint (in vitro [7]) [µL/min/1e6 cells] | solubility thermodynamic (physchem [8]) [µM] | logD (physchem [4]; pH 7.4) | fraction unbound at 5 h (in vitro [5])
18 | CCOc1cc2ncc(C(N)=O)c(Nc3ccc(C)cc3F)c2cc1N1CCN(C)CC1 | 0.151 | 0.183 | – | – | – | 26 | – | 12 | – | – | –
19 | COc1ccc(CCN2C(=O)N(NS(C)(=O)=O)C[C@@H]2c2ccc(OC)cc2)cc1 | 0.0191 | 0.0854 | 19.1 | – | 0.0477 | – | – | – | – | – | –
20 | COc1ccc(CCN2C(=O)N(NS(C)(=O)=O)C[C@H]2c2ccc(OC)cc2)cc1 | 0.0568 | 0.089 | 21.9 | – | 0.0633 | – | – | – | – | – | –
21 | CCCCNC(=O)c1ccc(Oc2ccc(CC(=O)O)cc2OC)c(NS(=O)(=O)c2ccc(Cl)cc2Cl)c1 | 0.0019 | 0.0171 | – | – | 0.002 | < 3 | – | – | – | – | –
22 | C[C@H](NC(=O)[C@@H](Cc1c[nH]c2ccccc12)NC(=O)[C@@H](N)Cc1c[nH]cn1)C(=O)N[C@@H](Cc1c[nH]c2ccccc12)C(=O)N[C@H](Cc1ccccc1)C(=O)N[C@@H](CCCCN)C(N)=O (HELM PEPTIDE1{H.[dW].A.W.[dF].K.[am]}$$$$V2.0) | 0.262 | 0.183 | – | – | – | – | 61.7 | – | – | – | –
23 | COc1cc(-n2cnc3cc(-c4ccc(Cl)cc4)sc3c2=O)ccc1OC[C@H](OP(=O)(O)O)C1CC1 [BMS-830216] | – | 0.0084 | 12.3 | -0.04 | 0.0061 | – | < 3 | – | – | – | –
24 | COC[C@H](O)Cn1c(=O)cnn(-c2ccc(Cl)c(C(=O)NCC3(O)CCCCCC3)c2)c1=O [CE-224535] | 0.477 | 0.552 | – | 1.46 | 0.415 | – | – | – | – | – | –
25 | O=c1[nH]c2ccccc2n1CCCN1CCC(n2c(=O)[nH]c3cc(Cl)ccc32)CC1 [DOMPERIDONE] | 0.069 | 0.0872 | – | – | – | – | – | – | – | 3.45 | 0.0335
26 | C#CC[C@@H](C(=O)N[C@H](/C=C/C(=O)OCC)C[C@@H]1CCNC1=O)n1cccc(NC(=O)c2cc(C)on2)c1=O [IMOCITRELVIR] | – | 0.535 | – | 1.75 | 0.443 | 20.9 | – | > 150 | – | – | –
27 | CC(C)Oc1ccc2c(=O)c(-c3ccccc3)coc2c1 [IPRIFLAVONE] | 0.0056 | 0.0051 | – | 4.07 | 0.0053 | – | – | 110 | 2.8 (≈ 0.785 µg/mL) | – | –
28 | CC[C@@H](Nc1c(Nc2cccc(C(=O)N(C)C)c2O)c(=O)c1=O)c1ccc(C)o1 [NAVARIXIN ANHYDROUS] | 0.0106 | 0.089 | – | 2.32 | 0.0179 | – | – | – | – | – | –
29 | COCCOC(=O)C1=C(C)NC(C)=C(C(=O)OC(C)C)C1c1cccc([N+](=O)[O-])c1 (stereo unspecified) [NIMODIPINE] | 0.0175 | 0.0116 | – | 3.8 | 0.0183 | – | – | – | 3.1 (≈ 1.3 µg/mL) | – | –
30 | CCOC(=O)C1=C(C)NC(C)=C(C(=O)OC)C1c1cccc([N+](=O)[O-])c1 (stereo unspecified) [NITRENDIPINE] | 0.0077 | 0.0108 | – | – | 0.009 | – | 85 | 75 | – | – | –
31 | O=C(Nc1ccccc1F)N[C@H]1N=C(c2ccccc2)c2ccccc2NC1=O [RSV-604] | 0.0274 | 0.0307 | – | – | – | – | – | – | 2.6 (≈ 1.01 µg/mL) | 4 | 0.0366
32 | N#CC[C@H](C1CCCC1)n1cc(-c2ncnc3[nH]ccc23)cn1 [RUXOLITINIB] | 0.173 | 0.166 | – | 2.55 | 0.0532 | – | – | – | – | – | –
33 | CC1=C(C)C(=O)C(C(CCCCCC(=O)O)c2ccccc2)=C(C)C1=O (stereo unspecified) [SERATRODAST] | – | 0.02 | – | 2.48 | – | 3 | – | 85 | – | – | –
34 | Cc1ccc(C(=O)c2ccc(CC(=O)O)n2C)cc1 [TOLMETIN] | 0.0287 | 0.0477 | – | -1.02 | 0.0028 | 4 | – | 7.33 | – | – | –
